Laboratory results: EP0314866A2, “Novel alkylated hormonereleasing peptides and method of treating mammals therewith” (The Administrators of The Tulane University Educational Fund, priority 1987, dated 1989)

Test system: plasma growth hormone
Assay: Evaluation of peptides in vivo in sheep: plasma GH after IV injection of GRF analogs
Parameters: species or system wether lambs
Conditions: lambs injected intravenously at 100 ng/kg; for Plasma GH (ng/ml) Post-inj Mean: two hours after treatment, means of 8 samples/animal from 8 animals
Description: The purpose of this experiment is to compare the GH releasing activities of several GRF analogs selected for expected high potency and the lack of either a terminal amide or a D-amino acid. The analogs to be compared in wether lambs at 100 ng/kg (IV) are tri-isopropyl-GRF(1-29)-NH₂, tri-isopropyl-GRF(1-29)-OH, tri-isopropyl-GRF(1-40)OH, D-ala², arg^12,21-GRF (1-29)-OH, D-ala², arg^12,21-GRF(1-29)-NH₂, GRF(1-40)-OH and GRF(1-29)-NH₂
A balanced 8 x 8 Latin square design will be used to test the following 8 treatments:
The diet used in these evaluations is a standard sheep diet (pelleted) and fresh water ad libitum. All animals are fed one daily.
The animals are individually identified by numbered ear tags and held in numbered metabolism cages.
Sheep are maintained in individual metabolism cages at all times. Each sheep has previously received an indwelling jugular cannula which is flushed daily with heparinized (400-800 IU/ml) sterile saline to help maintain patency.
All compounds are solubilized at 5 ug/ml in sterile saline containing 1% Tween 80 and injected intravenously at 100 ng/kg. Control lambs receive equal volumes of the vehicle only. The drugs are prepared each day just prior to injection to minimize sticking to the vials.
Blood is collected in heparinized tubes at 15 minute intervals for one hours prior to and for two hours after the treatments are administered. Plasma samples are removed by centrifugation and frozen.
Body weights of each animal is taken at the start of the experiment and once during treatment.
Blood samples are taken from each animal at 15 minute intervals for 3 hours each day during the 8 day trial period. The samples are analyzed for plasma growth hormone (ng/ml). Data obtained are reported below as near values obtained for each treatment.

| Structure (SMILES) | Plasma GH (ng/ml) Peak [ng/mL] | Plasma GH (ng/ml) Post-inj Mean [ng/mL] |
| --- | --- | --- |
| CC[C@H](C)[C@H](NC(=O)[C@H](C)NC(=O)[C@H](CC(=O)O)NC(=O)[C@H](C)NC(=O)[C@@H](N)Cc1ccc(O)cc1)C(=O)N[C@@H](Cc1ccccc1)C(=O)N[C@H](C(=O)N[C@@H](CC(N)=O)C(=O)N[C@@H](CO)C(=O)N[C@@H](Cc1ccc(O)cc1)C(=O)N[C@@H](CCCNC(=N)N)C(=O)N[C@@H](CCCCN)C(=O)N[C@H](C(=O)N[C@@H](CC(C)C)C(=O)NCC(=O)N[C@@H](CCC(N)=O)C(=O)N[C@@H](CC(C)C)C(=O)N[C@@H](CO)C(=O)N[C@@H](C)C(=O)N[C@@H](CCCNC(=N)N)C(=O)N[C@@H](CCCCN)C(=O)N[C@@H](CC(C)C)C(=O)N[C@@H](CC(C)C)C(=O)N[C@@H](CCC(N)=O)C(=O)N[C@@H](CC(=O)O)C(=O)N[C@H](C(=O)N[C@@H](CCSC)C(=O)N[C@@H](CO)C(=O)N[C@@H](CCCNC(=N)N)C(=O)N[C@@H](CCC(N)=O)C(=O)N[C@@H](CCC(N)=O)C(=O)NCC(=O)N[C@@H](CCC(=O)O)C(=O)N[C@@H](CO)C(=O)N[C@@H](CC(N)=O)C(=O)N[C@@H](CCC(N)=O)C(=O)N[C@@H](CCC(=O)O)C(=O)N[C@@H](CCCNC(=N)N)C(=O)NCC(=O)N[C@@H](C)C(=O)O)[C@@H](C)CC)C(C)C)[C@@H](C)O [GRF(1-40)-OH] | 92.3 | 25.5 |
| CC[C@H](C)[C@H](NC(=O)[C@H](C)NC(=O)[C@H](CC(=O)O)NC(=O)[C@H](C)NC(=O)[C@H](Cc1ccc(O)cc1)NC(C)C)C(=O)N[C@@H](Cc1ccccc1)C(=O)N[C@H](C(=O)N[C@@H](CC(N)=O)C(=O)N[C@@H](CO)C(=O)N[C@@H](Cc1ccc(O)cc1)C(=O)N[C@@H](CCCNC(=N)N)C(=O)N[C@@H](CCCCNC(C)C)C(=O)N[C@H](C(=O)N[C@@H](CC(C)C)C(=O)NCC(=O)N[C@@H](CCC(N)=O)C(=O)N[C@@H](CC(C)C)C(=O)N[C@@H](CO)C(=O)N[C@@H](C)C(=O)N[C@@H](CCCNC(=N)N)C(=O)N[C@@H](CCCCNC(C)C)C(=O)N[C@@H](CC(C)C)C(=O)N[C@@H](CC(C)C)C(=O)N[C@@H](CCC(N)=O)C(=O)N[C@@H](CC(=O)O)C(=O)N[C@H](C(=O)N[C@@H](CCSC)C(=O)N[C@@H](CO)C(=O)N[C@@H](CCCNC(=N)N)C(=O)N[C@@H](CCC(N)=O)C(=O)N[C@@H](CCC(N)=O)C(=O)NCC(=O)N[C@@H](CCC(=O)O)C(=O)N[C@@H](CO)C(=O)N[C@@H](CC(N)=O)C(=O)N[C@@H](CCC(N)=O)C(=O)N[C@@H](CCC(=O)O)C(=O)N[C@@H](CCCNC(=N)N)C(=O)NCC(=O)N[C@@H](C)C(=O)O)[C@@H](C)CC)C(C)C)[C@@H](C)O [tri-isopropyl-GRF(1-40)-OH, [N ^α-Isopropyl-Tyr¹, N ^ε-isopropyl-Lys^12,21]GRF(1-40)OH] | 108.6 | 34.0 |
